Source: PMC7737769, “Pharmacological inhibition of syntenin PDZ2 domain impairs breast cancer cell activities and exosome loading with syndecan and EpCAM cargo” (Journal of Extracellular Vesicles, 2020)

Experiments:
[1] = system: T1, GRASP55‐JAM‐C complex; assay: HTRF assay, GRASP55-JAM-C interaction; assay type: biochemical, human; conditions: 400µM compound; Figure 1c
T1 construct: Human GRASP55 tandem PDZ; made in house; host or cells: E. coli BL21 (DE3)
Procedure: (§1) HTRF assays were performed in white 96Well Small VolumeHiBase Polystyrene Microplates (Greiner) with a total working volume of […], as described previously (Milhas et al., 2016). Briefly, compounds were firstly dispensed into the wells at 400 µM for the primary screen or with serial DMSO dilutions for IC50 measurement assays. Primary screening assays have been performed in monoplicate while IC50 measurements were performed in triplicates. All HTRF reagents were purchased from CisBio Bioassays and reconstituted according to the supplier protocols. The plates were spun for 3 min at 500 × g and then incubated at 4°C for 16 h. The HTRF signals were recorded on a POLAR star Omega plate reader (BMG Labtech) with an excitation filter at 337 nm and fluorescence wavelength measurement at 620 and 665 nm, an integration delay of 60 µs and an integration time of 400 µs. Results were analysed with a two‐wavelength signal ratio: [intensity (665 nm)/intensity (620 nm)] × 10^4. Percentage of inhibition was calculated using the following equation: % inhibition = [(compound signal)–(min signal)]/[(max signal)–(min signal)] × 100, where ‘max signal’ is the signal ratio with the compound vehicle alone (DMSO) and ‘min signal’ the signal ratio without protein B. For IC50 measurements, values were normalized and fitted with Prism (GraphPad software) using the following equation: Y = 100/(1+((X/ IC50)ˆHill slope)).
(§2) The search strategy for PDZ2 syntenin inhibitors was based on the PDZ targeted library developed from Enamine compound collection. The PDZ targeted library was developed to cover virtually all PDZ domains. Consequently, to create the syntenin PDZ2 focused library we used two independent paths: docking of the PDZ targeted library against structures of syntenin PDZ2 available in Protein Data Bank and a random selection from the PDZ targeted library. The docking has produced 21 virtual hits, which were added to 118 randomly selected compounds (10% of the pan PDZ library). The resultant set of 139 compounds, syntenin PDZ library was subjected to experimental validation. The primary screen was performed at 400µM using a previously validated Homogeneous Time Resolved Fluorescence (HTRF) assay (Milhas et al., 2016). HTRF is based on Fluorescence Resonance Energy Transfer (FRET) between two fluorescent reagents. In the present case, Anti‐GST‐Terbium antibody and streptavidin‐bound Dynamic2 were used as donor and acceptor respectively. Interactions between GST PDZ‐fusion proteins and biotinylated peptides containing PDZ binding motifs were challenged with the potential inhibitors. In parallel, control experiments were performed with a biotinylated‐GST to verify that compounds were not interfering with the FRET signal in a non‐specific manner. To identify inhibitors of syntenin PDZ interactions, we tested for the effect of the 139 compounds on syntenin‐SDC2 and syntenin‐Frizzled7 complexes (Figure 1a; Table S1). When the HTRF signal dropped below 0.9, inhibition was considered as effective. […] Noteworthy, these compounds had no effect on other PDZ complexes like GRASP55‐JAM‐B or GRASP55‐JAM‐C and Erbin‐Erbb2 or Erbin‐P0071 (Figure 1c).

[2] = system: biotinylated‐GST; assay: HTRF control with biotinylated-GST (non-specific interference with FRET signal)
Procedure: as §1, §2

[3] = system: MCF‐7 SyntKO cells; assay: Cancer cell viability (Annexin V/7-AAD flow cytometry), MCF-7 SyntKO; assay type: cell-based; conditions: concentrations up to 100 µM, 48 h
Procedure: The effects of the compounds C58 and SyntOFF were tested both on MCF‐7 and MCF‐7 SyntKO cells. Briefly, the cells were treated with increasing concentrations of the compounds for 48 h and early/late apoptosis was measured by using the FITC Annexin V apoptosis detection kit with 7‐AAD (Biolegend, San Diego, CA, USA) according to the manufacturer. Annexin V positive but 7‐AAD negative (early apoptotic cells) and Annexin V positive and 7‐AAD positive (late stage apoptosis) was determined by using FACS LSRII flow cytometer (BD Biosciences) and data were analysed with Flowjo software (Tree Star).

[4] = system: T2, GRASP55‐PDZ tandem; assay: Surface plasmon resonance (BIAcore), GRASP55 PDZ tandem; assay type: binding, human; conditions: 50µM ‐1000 µM
T2 construct: made in house; host or cells: Biotin XCell F' E. coli cells
Procedure: All SPR experiments were conducted with a BIAcore T200 instrument (GE Healthcare), at 25°C. A total of 8000 resonance units (RU) of biotinylated ligands (N‐terminal 6xHis tagged biotinylated syntenin tandem, syntenin tandem with C terminus, GRASP55 tandem or GST as control) were immobilized on a streptavidin‐sensor chip (GE Healthcare). Analytes (C58 and SyntOFF compounds) were perfused at 30 µl per min in running buffer (10 mM HEPES pH 7.4, 150 mM NaCl, 0.005% Tween20) at different concentrations. The reference channel was N‐terminal 6xHis tagged biotinylated GST protein. The injection time was 240 s, long enough for the sensorgrams to reach equilibrium, and the dissociation time was 240 s. To carry out these SPR experiments, we employed the method known as ‘single‐cycle kinetics’ described in 2006 by Karlsson and co‐workers (Karlsson, Katsamba, Nordin, Pol, & Myszka, 2006). It consists in injecting the analyte at increasing concentrations, without regeneration steps between each sample injection to avoid that folded‐proteins can be damaged after regeneration steps. Equilibrium dissociation constants (KD) were calculated by fitting the data to a simple Langmuir binding isotherm using GraphPad Prism. For determination of the apparent KD, signals obtained at equilibrium were plotted as a function of compound concentration. […]

[5] = system: MCF‐7 SyntKO cells; assay: Mammosphere formation assay, MCF-7 SyntKO; assay type: cell-based; conditions: 100 µM
Procedure: MCF‐7 and MCF‐7 SyntKO cells were treated with increasing concentrations of compounds C58, SyntOFF (50‐100µM) or DMSO 0.2% as control. After 24 h, cells were trypsinized, re‐suspended in normal growth media and washed three times in PBS to remove serum. Cell concentration was determined using the LUNA-FL Automated Fluorescence Cell Counter (Logos Biosystem) and cells were then seeded at 1000 cells/ml in 6‐well Ultra low Adherence plates (Corning Inc., Corning, NY) in MEBM medium (Lonza) supplemented with 5 µg/ml insulin (Sigma‐Aldrich), 20 ng/ml recombinant epidermal growth factor (Sigma‐Aldrich), 1X of B27 supplement (Invitrogen, Carlsbad, CA, USA), 0.5 µg/ml hydrocortisone (Sigma‐Aldrich), 1X of β‐mercaptoethanol and 1% penicillin/streptomycin (Gibco). Fresh medium was added into the plates every 3–4 days. The number of spheres (diameter > 50 µm) was evaluated under microscope on days 7–10. Sphere formation was calculated as the number of spheres divided by the original number of cells seeded and normalized to control.

Structure (SMILES)	GST-GRASP JAM-C (signal ratio) [1]	GST-biot (signal ratio) ([2]; 400µM compound, Figure 1c)	effect on control (biotinylated‐GST) FRET signals ([2]; HTRF primary screen, 400µM)	HTRF ASSAY GST-biot (HTRF signal ratio, control) ([2]; primary screen, 400 µM compound, Table S1)	toxicity (cell viability) [3]	binding to GRASP55‐PDZ tandem [4]	mammosphere formation [5]
CC(C)[C@H](NC(=O)CSc1ccc(Cl)cc1)C(=O)O [Compound C58]	1	0.92	no significant effect	1.01	not toxic	no binding	
CC(C)[C@H](NC(=O)CCSc1ccc(Cl)cc1)C(=O)O [SyntOFF, (S)‐2‐(3‐(4‐chlorophenylthio)propanamido)‐3‐methylbutanoic acid]							no effect
